Laboratory results published in patent US12029742B2, “Compositions and methods for the repair of myelin” (Duke University, priority 2014, dated 2024).

Tests used:
[1] = system: Primary neural stem cells; assay: In vitro oligodendrocyte differentiation from neural stem cells with breast milk-associated oxysterols (western blot); type: cell-based; settings: 1 μm and 0.5 μm for five days, then 18 days differentiation; FIG. 8
Description: FIG. 8 is a western blot analysis. Stem cells were treated with oxysterols at doses indicated for 5 days then allowed to differentiate for 18 days. Primary neural stem cells were treated with 24-hydroxycholesterol and 25-hydroxycholesterol at 1 μm and 0.5 μm for five days, then allowed to differentiate for 18 days. Protein lysates were probed for oligodendrocyte-associated proteins CNPase and myelin basic protein (MBP).

[2] = system: primary neural stem cells from neonatal mice; assay: In vitro oligodendrocyte differentiation from neural stem cells; type: cell-based
Description: To determine the impact of oxysterol exposure on cellular differentiation, primary neural stem cells from neonatal mice were cultured in chamber slides. Cells were cultured in media alone (control) or 1 μM 20α-hydroxycholesterol for 7 days were then allowed to differentiate for 18 days. The differentiated cells were immunostained for markers of oligodendrocytes (Olig2 and CNPase) and visualized on a confocal microscope (FIG. 1A). […] Protein samples from control and 20α-hydroxycholesterol treated stem cell cultures were then fractionated and probed for markers of the oligodendrocyte lineage.

[3] = system: olig2+ cells in the corpus callosum; assay: In vivo oligodendrocyte differentiation in uninjured postnatal mice; settings: uninjured five-day old mice, 100 mg/kg/day subcutaneously, 4 daily doses, analyzed five days after final injection; vs vehicle; p<0.02
Description: 20α-hydroxycholesterol was administered to uninjured postnatal mice during the normal myelination period to determine if oxysterol exposure increased the numbers of oligodendrocytes in vivo. Five-day old mice were administered 4 daily doses of vehicle control (n=4) or 20α-hydroxycholesterol (n=4) subcutaneously (100 mg/kg/day) and rested. Five days after the final injection, the mice were analyzed to quantify the number of olig2+ cells in the corpus callosum (FIG. 2A, FIG. 2B).

[4] = biological target: smoothened (SMO) (Homo sapiens, UniProt Q99835); settings: fibroblast cell culture systems; recent studies; cited from earlier work
smoothened (SMO), sequence (Q99835 28-787): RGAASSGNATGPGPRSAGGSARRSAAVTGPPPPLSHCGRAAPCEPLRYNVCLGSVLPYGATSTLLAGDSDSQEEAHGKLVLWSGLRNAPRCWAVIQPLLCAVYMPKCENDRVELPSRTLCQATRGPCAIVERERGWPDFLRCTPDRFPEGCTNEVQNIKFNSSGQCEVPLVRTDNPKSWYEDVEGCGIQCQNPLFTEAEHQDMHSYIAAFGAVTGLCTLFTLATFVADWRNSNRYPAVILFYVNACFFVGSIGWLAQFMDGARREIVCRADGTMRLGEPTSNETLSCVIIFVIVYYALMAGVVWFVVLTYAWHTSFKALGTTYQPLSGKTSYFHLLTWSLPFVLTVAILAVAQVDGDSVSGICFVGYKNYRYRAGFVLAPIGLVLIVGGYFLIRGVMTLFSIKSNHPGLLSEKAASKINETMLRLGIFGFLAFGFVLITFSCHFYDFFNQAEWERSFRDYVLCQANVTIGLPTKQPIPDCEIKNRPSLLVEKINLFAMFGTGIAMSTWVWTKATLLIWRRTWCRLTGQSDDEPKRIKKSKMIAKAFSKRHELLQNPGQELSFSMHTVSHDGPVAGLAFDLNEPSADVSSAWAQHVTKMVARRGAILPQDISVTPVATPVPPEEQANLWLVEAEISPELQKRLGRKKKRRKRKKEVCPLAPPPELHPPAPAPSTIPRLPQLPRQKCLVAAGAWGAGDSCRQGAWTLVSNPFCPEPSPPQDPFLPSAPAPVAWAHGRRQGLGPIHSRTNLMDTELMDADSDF

[5] = system: sepsis-induced myelin injury; assay: CatWalk gait analysis of mice after perinatal sepsis-induced myelin injury; type: in vivo; settings: sepsis-injured mice
From the text: The detection of differences in locomotor function is an important tool for the assessment of the severity of many conditions that affect the central nervous system (CNS), peripheral nervous system (PNS) and skeletal structures or muscles. A gait analysis system, such as the CatWalk™ XT, provides automatic and sensitive detection of a full range of parameters related to footprints and the dynamics of gait in animal testing.
The impact of oxysterol therapy on motor function in injured mice was also determined. Mice were subjected to sepsis-induced myelin injury on postnatal day 5. Twenty-four hours after injury, septic mice were divided into a vehicle control group and an oxysterol treated group. Treatment with 20α-hydroxycholesterol (100 mg/kg/day) was carried out daily for five days. At two months of age (adult), mice were evaluated on a CatWalk Gait Analysis System (Noldus Inc.). The gait analysis system identified multiple disturbances in the gait of untreated mature mice that survived perinatal sepsis. However, these gait disturbances were not present in mice treated with 20α-hydroxycholesterol.
Regularity Index: Regularity Index is a measure of interpaw coordination, and disturbances in regularity may be a result of cerebral injury. The Regularity Index was determined for uninjured control mice (FIG. 4A, FIG. 4D), sepsis mice (FIG. 4B, FIG. 4D), and septic mice treated with the oxysterol 20HC (FIG. 4C, FIG. 4D).
Stand and step cycle: Stand and step cycle are measures of the length of time the animal's paws are in contact with the platform as they walk. Increased stand and step cycle times are measures of gait instability.
Swing and swing speed: Swing and swing speed are measures of the animals “rocking” as they walk. While the swing was increased in perinatal sepsis survivors (FIG. 5C), the swing speed was decreased in sepsis survivors (FIG. 5D) consistant with an unsteady gait.

[6] = system: olig2APC+ oligodendrocytes in the periventricular white matter of the corpus callosum; assay: Perinatal mouse model of sepsis-associated myelin injury, stereological oligodendrocyte counting; type: in vivo, mice; settings: sepsis injury on postnatal day 5; 100 mg/kg/day subcutaneous for 5 days from 24 hours after injury; stereology on postnatal day 25; p=0.001
Description: Quantification of oligodendrocyte cell numbers in the brain is critical to determining the impact of oxysterol therapy. Stereology is a useful research tool used by neuroscientists to provide accurate and unbiased estimates of cell numbers within specified brain regions. The number of oligodendrocyte numbers is determined using Stereo Investoigator™ software (MBF Bioscience) and a Zeiss Axiolmager M2 motorized fluorescent microscope with Apotome structured illumination. Perfusion fixed cryoprotected brains are frozen sectioned at […] and collected free-floating in phosphate buffered saline. […] Olig2+APC+ nucleated cells are then counted throughout the corpus callosum using a 63× oil objective lens.
Perinatal bowel perforation is a common complication of premature birth and is strongly linked to myelin injury and cerebral palsy. Using a perinatal mouse model of bowel perforation to induce sepsis-associated diffuse myelin injury on postnatal day 5, sepsis mice were determined to have a 60% reduction of mature oligodendrocytes at postnatal day 25 (FIG. 3).
To determine the efficacy of oxysterol therapy, the perinatal mouse model was employed to induce injury in mice on postnatal day 5. […] Coronal sections of the brains were analyzed using stereology on postnatal day 25 to determine the number of olig2APC+ oligodendrocytes in the periventricular white matter of the corpus callosum. […]

In the case of `CC(C)C(O)CC[C@@H](C)[C@H]1CC[C@H]2[C@@H]3CC=C4C[C@@H](O)CC[C@]4(C)[C@H]3CC[C@]12C` (some centres unmarked) [24-hydroxycholesterol], the “expression of oligodendrocyte-associated proteins CNPase and MBP (western blot)” value [1] is reported as “induced expression”.

For `C[C@H](CCCC(C)(C)O)[C@H]1CC[C@H]2[C@@H]3CC=C4C[C@@H](O)CC[C@]4(C)[C@H]3CC[C@]12C` [25-hydroxycholesterol], the “expression of oligodendrocyte-associated proteins CNPase and MBP (western blot)” value [1] was “induced expression”.

With `CC(C)CCC[C@](C)(O)[C@H]1CC[C@H]2[C@@H]3CC=C4C[C@@H](O)CC[C@]4(C)[C@H]3CC[C@@]21C` [20α-hydroxycholesterol] the “olig2+ CNPase+ cells (oligodendrocytes), cell counting” value ([2]; 1 μM for 7 days, then 18 days differentiation, vs media alone, p<0.02, FIG. 1C) was “significant increase”, the “CNPase, Olig2 and myelin basic protein (MBP), Western blot” value ([2]; 1 μM treated stem cell cultures vs control, FIG. 1D) was “increase” and the “olig2+ cell population in the corpus callosum” value [3] was “significant increase”. For the same compound, the “SHH pathway activation via direct binding to smoothened (SMO)” value [4] was “activate the SHH pathway”, the “gait disturbances (CatWalk Gait Analysis System)” value ([5]; 100 mg/kg/day daily for five days, evaluated at two months of age) was “not present” and the “Regularity Index (interpaw coordination)” value ([5]; 100 mg/kg/day daily for five days, two months of age, FIG. 4D) was “completely reversed any observed deficits”. For the same compound, the “Swing and swing speed” value ([5]; FIG. 5C, 5D) was “reversed all of these measures of gait disturbances” and the “amount of oligodendrocytes (olig2APC+) within the periventricular white matter” value [6] was “significantly increased”.

In the case of `CC(C)CC[C@@H](O)[C@@H](C)[C@H]1CC[C@H]2[C@@H]3CC=C4C[C@@H](O)CC[C@]4(C)[C@H]3CC[C@]12C` [22α-hydroxycholesterol], the “SHH pathway activation via direct binding to smoothened (SMO)” value [4] is listed as “activate the SHH pathway”.
